For orientation: EC50 means the concentration at which the effect is half-maximal. By inhibition is commonly meant the change of the read-out against control, counted positive when it falls. As a reminder, the solubility is the concentration that dissolves in the medium under given conditions. Higher therefore signals much dissolved substance.

Converted amounts (≈) assume the structure as drawn. Some results are limits rather than exact numbers.

The source of these data is patent US20250282812A1, “ANTIVIRAL NUCLEOSIDE ANALOGUE, AND PHARMACEUTICAL COMPOSITION AND USE THEREOF” (SHANGHAI INSTITUTE OF MATERIA MEDICA , CHINESE ACADEMY OF …, priority 2022, published 2025).

In data set [1] the test system is respiratory syncytial virus (RSV) A long strain. The data set can be described thus: In vitro activity against respiratory syncytial virus (CPE, CCK8, HEp-2 cells). Particulars: human respiratory syncytial virus, 120 h, MOI=0.02, 5 days. In kind it is cell-based.
For data set [2], the system named is SFTSV-Nluc. The data set can be described thus: microbe, parasite or virus in culture. Conditions: Severe fever with thrombocytopenia syndrome virus, Vero, 48 h; for inhibition at 10 µM: read-out: Inhibition rate (10 μM). In kind it is cell-based, severe fever with thrombocytopenia syndrome virus (SFTSV).
In data set [3] the test system is influenza virus (IFV) A/California/07/2009 (H1N1) pdm09 strain. Description: In vitro activity against influenza virus (CPE, CCK8, MDCK cells). It counts as cell-based. Particulars: 120 h, read-out: IFV (MDCK) EC50.
Data set [4] can be described thus: Stability test of compounds in solutions at different pH values.
Data set [5] can be described thus: Cytotoxicity in HEp-2 cells (CCK8). Conditions: human.
A further data set is described as follows: in vitro. Particulars: dog.
The nature of data set [6]: Solubility of compounds in water. Particulars: thermodynamic from solid.
The test system of data set [7] is influenza virus Influenza A/PR/8/34 (PR8). Description: In vivo efficacy for influenza virus in mice. Set-up: species or system Balb/C mice. Conditions: […]; intragastric once daily Day 0-3; X219 hydrochloride 10, 20 and 30 mpk; favipiravir 200 mpk.
For data set [8], the system named is SFTSV-Nluc. Set-up: species or system A129 mice. Particulars: mouse.
Setting [9] is: buffered saline solution pH 4.0, 3 h.
Setting [10] is: buffered saline solution pH 4.0, 6 h.
[11] abbreviates: buffered saline solution pH 4.0, 9 h.
[12] abbreviates: buffered saline solution pH 4.0, 12 h.
The mark [13] stands for this setting: buffered saline solution pH 4.0, 15 h.
The mark [14] stands for this setting: buffered saline solution pH 4.0, 18 h.
Setting [15] is: buffered saline solution pH 4.0, 21 h.
The mark [16] stands for this setting: buffered saline solution pH 4.0, 24 h.
Setting [17] is: buffered saline solution pH 6.8, 3 h.
Where [18] appears, read: buffered saline solution pH 6.8, 6 h.
Where [19] appears, read: buffered saline solution pH 6.8, 9 h.
Where [20] appears, read: buffered saline solution pH 6.8, 12 h.
Setting [21] is: buffered saline solution pH 6.8, 15 h.
[22] abbreviates: buffered saline solution pH 6.8, 18 h.
Where [23] appears, read: buffered saline solution pH 6.8, 21 h.
[24] abbreviates: buffered saline solution pH 6.8, 24 h.

Regarding `CC(C)C(=O)OCn1c(=O)ccn([C@@H]2O[C@](F)(COC(=O)C(C)C)[C@@H](O)[C@H]2O)c1=O` [Compound X51], the EC50 is 2150 nM in [1], 430 nM in the data set on SFTSV-Nluc [2] and < 370 nM in data set [3]. The inhibition at 10 µM in the data set with SFTSV-Nluc [2] was found to be 94.1%. Besides, the “Content reduction (%)” value is given as 1.6% in data set [4] (setting [9]); 2.5% in data set [4] (setting [10]); 3.1% in data set [4] (setting [11]); 3.4% in [4] (setting [12]); 3.9% in data set [4] (setting [13]); 4.6% in data set [4] (setting [14]). In addition, the “Content reduction (%)” value in data set [4] (setting [15]) is recorded as 5.2%; in data set [4] (setting [16]), 5.6%; in [4] (setting [17]) it was 1.1%; in data set [4] (setting [18]), 2.0%; in [4] (setting [19]), 3.0%; in data set [4] (setting [20]) it was 3.8%. Further, the “Content reduction (%)” value in data set [4] (setting [21]) came out at 4.7%; in data set [4] (setting [22]) it was 5.6%; in data set [4] (setting [23]), 6.5%; in data set [4] (setting [24]), 7.4%. For the same compound, the CC50 at 5 days in data set [5] was > 10000 nM. In addition, in “in vitro”, the CC50 is > 10000 nM.

Turning to `CC(C)C(=O)OC[C@@]1(F)O[C@@H](n2ccc(=O)n(COC(=O)C3CCCCC3)c2=O)[C@H](O)[C@@H]1O` [Compound X55], the EC50 was 1630 nM in data set [1], 1040 nM in the data set on SFTSV-Nluc [2] and < 370 nM in data set [3]. For the same compound, in the data set on SFTSV-Nluc [2], the inhibition at 10 µM is 93.6%. In addition, the “Content reduction (%)” value in [4] (setting [9]) is given as 2.4%; in data set [4] (setting [10]) it was 4.9%; in [4] (setting [11]), 6.9%; in [4] (setting [12]) it was 9.0%; in [4] (setting [13]), 10.8%; in [4] (setting [14]), 12.7%. In addition, the “Content reduction (%)” value in data set [4] (setting [15]) amounted to 14.2%; in [4] (setting [16]), 15.4%; in data set [4] (setting [17]), 1.0%; in data set [4] (setting [18]) it was 2.3%; in [4] (setting [19]) it was 3.3%; in data set [4] (setting [20]), 4.4%. Moreover, the “Content reduction (%)” value is on record as 5.4% in [4] (setting [21]), 6.4% in data set [4] (setting [22]) and 7.7% in data set [4] (setting [23]). Moreover, the CC50 at 5 days in data set [5] is > 10000 nM. In “in vitro”, the CC50 is > 10000 nM.

Take `CC(C)C(=O)OC[C@@]1(F)O[C@@H](n2ccc(=O)n(COC(=O)[C@@H](N)C(C)C)c2=O)[C@H](OC(=O)C(C)C)[C@@H]1OC(=O)C(C)C` [Compound X98]: the EC50 in data set [1] came out at 1420 nM; with SFTSV-Nluc [2], 1160 nM; in data set [3] it was 500 nM. The inhibition at 10 µM in the data set with SFTSV-Nluc [2] was found to be 95.7%. Further, the CC50 at 5 days in data set [5] is > 10000 nM. In “in vitro”, the CC50 was > 10000 nM.

For the compound `CCCCCCCCCCCC(=O)OCn1c(=O)ccn([C@@H]2O[C@](F)(COC(=O)CCCCCCCCCCC)[C@@H](O)[C@H]2O)c1=O` [Compound X199], the 50% effective concentration (EC50) in [1] came out at 460 nM; in the data set on SFTSV-Nluc [2] it was 2790 nM; in data set [3], 410 nM. Also, in the data set with SFTSV-Nluc [2], the inhibition at 10 µM came to 96.1%. Also, in data set [5], the CC50 at 5 days was > 10000 nM. In addition, in the data set “in vitro”, the CC50 is > 10000 nM.

Regarding `CC(C)C(=O)OC[C@@]1(F)O[C@@H](n2ccc(=O)n(COC(=O)c3cccnc3)c2=O)[C@H](OC(=O)C(C)C)[C@@H]1OC(=O)C(C)C` [Compound X206], the EC50 in [1] worked out at 2430 nM; in the data set with SFTSV-Nluc [2] it was 1730 nM; in data set [3], 380 nM. For the same compound, the inhibition at 10 µM in the data set with SFTSV-Nluc [2] is 93.7%. For the same compound, the “Content reduction (%)” value in data set [4] (setting [9]) was 0.01%; in data set [4] (setting [10]), 0.03%; in data set [4] (setting [11]), 0.02%; in [4] (setting [12]), 0.03%; in data set [4] (setting [13]) it was 0.03%; in [4] (setting [14]) it was 0.01%. Besides, the “Content reduction (%)” value is recorded as 0.03% in data set [4] (setting [15]); 0.0% in [4] (setting [16]); 1.93% in data set [4] (setting [17]); 3.09% in [4] (setting [18]); 3.84% in data set [4] (setting [19]); 4.06% in data set [4] (setting [20]). Also, the “Content reduction (%)” value in data set [4] (setting [21]) stood at 5.72%; in [4] (setting [22]), 6.34%; in data set [4] (setting [23]) it was 7.28%; in [4] (setting [24]), 8.16%. Further, in data set [5], the CC50 at 5 days was > 10000 nM. Besides, in the data set “in vitro”, the CC50 is > 10000 nM.

Take `CC(C)C(=O)OC[C@@]1(F)O[C@@H](n2ccc(=O)n(COC(=O)c3cccnc3)c2=O)[C@H](O)[C@@H]1O` [Compound X207]: the figures for the half-maximal effective concentration (EC50) (in data set [1]; in the data set on SFTSV-Nluc [2]; in data set [3]) were 4090 nM, 1890 nM and 380 nM, respectively. Further, in the data set on SFTSV-Nluc [2], the inhibition at 10 µM amounted to 91.8%. For the same compound, in [5], the CC50 at 5 days was > 10000 nM. Also, the CC50 in the data set “in vitro” was > 10000 nM.

As for `CC(=O)OC[C@@]1(F)O[C@@H](n2ccc(=O)[nH]c2=O)[C@H](OC(C)=O)[C@@H]1OC(C)=O` [Compound X219-1], the solubility at 15 min in data set [6] came to 150 µg/mL (≈ 386 µM).

`CC(C)(C)C(=O)OCn1c(=O)ccn([C@@H]2O[C@](F)(COC(=O)c3cccnc3)[C@@H](O)[C@H]2O)c1=O` [Compound X222]: the EC50 in [1] was 770 nM; in the data set with SFTSV-Nluc [2] it was 3300 nM; in data set [3], < 370 nM. In the data set on SFTSV-Nluc [2], the inhibition at 10 µM came out at 90.3%. For the same compound, in data set [5], the CC50 at 5 days is > 10000 nM. Besides, the CC50 in “in vitro” is > 10000 nM.

`CC(=O)O[C@H]1[C@H](n2ccc(=O)[nH]c2=O)O[C@](F)(COC(=O)C(C)C)[C@H]1OC(C)=O` [Compound X265-3] returned a solubility at 15 min in data set [6] of 100 µg/mL (≈ 240 µM).

As for `CC(C)C(=O)OC[C@@]1(F)O[C@@H](n2ccc(=O)n(COC(=O)[C@@H]3CCCN3)c2=O)[C@H](OC(=O)C(C)C)[C@@H]1OC(=O)C(C)C` [Compound X266], the figures for the EC50 (in data set [1]; in the data set on SFTSV-Nluc [2]; in data set [3]) were 1020 nM, 2070 nM and 894 nM, respectively. The inhibition at 10 µM in the data set with SFTSV-Nluc [2] came out at 94.6%. Also, the CC50 at 5 days in data set [5] was > 10000 nM. Besides, the CC50 in the data set “in vitro” is > 10000 nM.

On to `CC(C)C(=O)OC[C@@]1(F)O[C@@H](n2ccc(=O)n(COC(=O)[C@@H]3CCCN3C)c2=O)[C@H](OC(=O)C(C)C)[C@@H]1OC(=O)C(C)C` [Compound X267], for which the EC50 is 880 nM in [1], 2000 nM in the data set with SFTSV-Nluc [2] and 500 nM in [3]. In addition, the inhibition at 10 µM in the data set on SFTSV-Nluc [2] was 94.1%. For the same compound, the CC50 at 5 days in data set [5] is > 10000 nM. The CC50 in “in vitro” is > 10000 nM.

On to `Br.CC(=O)OC[C@@]1(F)O[C@@H](n2ccc(=O)n(COC(=O)c3cccnc3)c2=O)[C@H](OC(C)=O)[C@@H]1OC(C)=O` [X219 hydrobromide], for which, in data set [6], the solubility at 15 min turned out to be 17600 µg/mL.

In the case of `Br.CC(=O)O[C@H]1[C@H](n2ccc(=O)n(COC(=O)c3cccnc3)c2=O)O[C@](F)(COC(=O)C(C)C)[C@H]1OC(C)=O` [X265 hydrobromide], in [6], the solubility at 15 min amounted to 8050 µg/mL.

For the compound `CC(=O)O[C@H]1[C@H](n2ccc(=O)n(COC(=O)c3cccnc3)c2=O)O[C@](F)(COC(=O)C(C)C)[C@H]1OC(C)=O.Cl` [X265 hydrochloride], the solubility at 15 min in data set [6] was 19500 µg/mL.

As for `NC(=O)c1nc(F)c[nH]c1=O` [favipiravir, reference compound], the “body weight after 4 days of infection compared with the initial body weight” value in data set [7] is “did not change significantly”. For the same compound, the “in vivo fluorescence imaging, fluorescence intensity on ventral and dorsal side” value with SFTSV-Nluc [8] is reported as “weak fluorescence intensity”.
